The experiment has as its target T1, MMP-13 (Homo sapiens, UniProt P45452).
T1 construct: made in house; host or cells: baculovirus / insect cells
Put plainly: In vitro MMP inhibition, IC50 determination (fluorogenic substrate I). It is filed as biochemical. As to conditions: values in parenthesis; 4 μM substrate I; room temperature. On the procedure:
Several hydroxamic acids and salts thereof were analyzed in in vitro assays to determine their ability to inhibit the MMP cleavage of peptide substrates. […] and IC50 constants were calculated from the assayed hydroxamic acid-MMP interactions.
Human recombinant MMP-1, MMP-2, MMP-9, MMP-13, and MMP-14 were used in this assay. All enzymes were prepared in Assignee's laboratories following usual laboratory procedures. Protocols for the preparation and use of these enzymes are available in the scientific literature. See, e.g., Enzyme Nomenclature (Academic Press, San Diego, Calif., 1992) (and the citations therein). See also, Freije et al., “Molecular cloning and expression of collagenase-3, a novel human matrix metalloproteinase produced by breast carcinomas,” J Biol. Chem., 269(24), 16766-16773 (1994).
The MMP-13 was obtained as a proenzyme from a full-length cDNA clone using baculovirus, as described by V. A. Luckow, “Insect Cell Expression Technology,” Protein Engineering: Principles and Practice, pp. 183-218 (edited by J. L. Cleland et al., Wiley-Liss, Inc., 1996). The expressed proenzyme was first purified over a heparin agarose column, and then over a chelating zinc chloride column. The proenzyme was then activated by APMA for use in the assay. Further details on baculovirus expression systems may be found in, for example, Luckow et al., J. Virol., 67, 4566-79 (1993). See also, O'Reilly et al, Baculovirus Expression Vectors: A Laboratory Manual (W.H. Freeman and Co., New York, N.Y., 1992). See also, King et al., The Baculovirus Expression System: A Laboratory Guide (Chapman & Hall, London, England, 1992).
All MMPs were activated using 4-aminophenylmercuric acetate (“APMA”, Sigma Chemical, St. Louis, Mo.) or trypsin. MMP-9 also was activated using human recombinant MMP-3 (purified in Assignee's laboratory following standard cloning and purification techniques).
Two fluorogenic, methoxycoumarin-containing polypeptide substrates were used in the MMP inhibition assays: [drawing 427] Here, “Dpa” is 3-(2,4-dinitrophenyl)-L-2,3-diaminopropionyl group, and “MCA” is 7-methoxycoumarin-4-yl acetyl. Substrate (I) was purchased from Baychem (Redwood City, Calif.), and substrate II was prepared Assignee's laboratory. Substrate I was used in the IC50 determination assays, while substrate II was used in the Ki determination assays. In the absence of MMP inhibitory activity, either substrate is cleaved at the Gly-Leu peptide bond. This cleavage separates the highly fluorogenic peptide from the 2,4-dinitrophenyl quencher, thus resulting in increase of fluorescent intensity.
The stock solutions of the assayed hydroxamic acids (or salts thereof) were prepared in 1% dimethyl sulfoxide (DMSO). These stock solutions were diluted in Buffer A (100 mM Tris-HCl, 100 mM NaCl, 10 mM CaCl2, 0.05% polyoxyethylene 23 lauryl ether, pH 7.5) to obtain solutions with different hydroxamic acid concentrations, i.e., assay solutions with different concentrations of the assayed MMP inhibitory compound. The experiment controls contained the same amount of Buffer A/DMSO as the assayed sample, but contained no hydroxamic acid (or salt thereof).
The assays from which the IC50 determinations were made were performed as follows. The MMPs were activated with either trypsin or APMA (4-aminophenylmercuric acetate, Sigma Chemical, St. Louis, Mo.). The assayed hydroxamic acid samples were incubated in Microfluor™ White Plates (Dynatech, Chantilly, Va.) and analyzed on a Perkin Elmer L550 plate reader (Norwalk, Conn.). The excitation wavelength was 328 nm, and the emission wavelength—415 nm. All samples (assayed hydroxamic acids and controls) were incubated in separate plates at room temperature in the presence of 4 μM of MMP substrate (I). As stated in the previous paragraph, samples containing varying concentrations of the same assayed hydroxamic acid were prepared. Inhibition was measured as a reduction in fluorescent intensity as a function of MMP inhibitor concentration. […]

Counter-ions that a name gives are not always drawn.

Turning to `CCCCc1ccc(N2CCN(S(=O)(=O)C3(C(=O)NO)CCN(CCOC)CC3)CC2)cc1` [Example 5, 4-{[4-(4-butylphenyl)piperazin-1-yl]sulfonyl}-N-hydroxy-1-(2-methoxyethyl)piperidine-4-carboxamide Dihydrochloride], the IC50 was less than 0.1 nM.

As for `CCCCCc1ccc(N2CCN(S(=O)(=O)C3(C(=O)NO)CCN(CCOC)CC3)CC2)cc1` [Example 6, N-Hydroxy-1-(2-methoxyethyl)-4-{[4-(4-pentylphenyl)piperazin-1-yl]sulfonyl}piperidine-4-carboxamide Dihydrochloride], the IC50 is 0.1 nM.

For `O=C(NO)C1(S(=O)(=O)N2CCN(c3ccc(OCC4CC4)c(F)c3)CC2)CCN(C2CC2)CC1` [Example 10, 1-cyclopropyl-4-[[4-[4-(cyclopropylmethoxy)-3-fluorophenyl]-1-piperazinyl]sulfonyl]-N-hydroxy-4-piperidinecarboxamide, dihydrochloride], the IC50 came out at 1.3 nM.

`CCCCOc1ccc(N2CCN(S(=O)(=O)C3(C(=O)NO)CCN(CCOC)CC3)CC2)cc1F` [Example 11, 4-[[4-(4-butoxy-3-fluorophenyl)-1-piperazinyl]sulfonyl]-N-hydroxy-1-(2-methoxyethyl)-4-piperidinecarboxamide, Dihydrochloride]: the IC50 stood at 0.8 nM.

For `CCCCCc1ccc(C2CCN(S(=O)(=O)C3(C(=O)NO)CCN(CCOC)CC3)CC2)cc1` [Example 15, N-hydroxy-1-(2-methoxyethyl)-4-{[4-(4-pentylpheyl)piperidin-1-yl]sulfonyl}piperidine-4-carboxamide Hydrochloride], the IC50 came to 0.1 nM.

The values above are taken from patent US20050209278A1, “Piperidinyl- and piperazinyl-sulfonylmethyl hydroxamic acids and their use as protease inhibitors” (priority 2002, published 2005).
